Test results from ChEMBL document CHEMBL1909562, “Carbazole-containing arylcarboxamides as BACE1 inhibitors” (Bioorg Med Chem Lett, 2011).

Each compound was assayed against Beta-secretase 1 (Homo sapiens, UniProt P56817) (assay: Inhibition of BACE1 by fluorescence-based assay).
Chain of Beta-secretase 1 (P56817 whole entry): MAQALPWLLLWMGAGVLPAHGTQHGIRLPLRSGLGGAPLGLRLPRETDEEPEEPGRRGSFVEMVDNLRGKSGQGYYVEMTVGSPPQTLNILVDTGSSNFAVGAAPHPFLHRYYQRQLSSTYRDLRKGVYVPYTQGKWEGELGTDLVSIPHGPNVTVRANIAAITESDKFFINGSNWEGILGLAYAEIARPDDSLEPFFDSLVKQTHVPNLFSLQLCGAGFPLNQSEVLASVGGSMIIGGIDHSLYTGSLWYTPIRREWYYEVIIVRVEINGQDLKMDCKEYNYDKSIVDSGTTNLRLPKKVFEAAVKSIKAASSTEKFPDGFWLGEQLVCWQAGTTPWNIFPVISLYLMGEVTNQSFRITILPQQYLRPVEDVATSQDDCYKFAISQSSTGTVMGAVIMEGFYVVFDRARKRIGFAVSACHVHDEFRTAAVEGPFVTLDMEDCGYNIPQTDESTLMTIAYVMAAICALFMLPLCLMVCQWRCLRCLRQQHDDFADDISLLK

| Compound | IC50 [µM] |
| --- | --- |
| O=C(c1ccccc1)N(CC(O)Cn1c2ccccc2c2ccccc21)c1ccccc1 (centres undefined) | > 10 |
| O=C(c1ccc(Cl)cc1)N(CC(O)Cn1c2ccccc2c2ccccc21)c1ccccc1 (centres undefined) | 4.7 |
| COc1ccc(C(=O)N(CC(O)Cn2c3ccccc3c3ccccc32)c2ccccc2)cc1 (centres undefined) | 3.8 |
| O=C(c1ccc(Cl)c(Cl)c1)N(CC(O)Cn1c2ccccc2c2ccccc21)c1ccccc1 (centres undefined) | 2.5 |
| O=C(c1ccccc1)N(CC(O)Cn1c2ccccc2c2ccccc21)c1ccc(C(F)(F)F)cc1 (centres undefined) | > 10 |
| O=C(c1ccccc1)N(CC(O)Cn1c2ccccc2c2ccccc21)c1ccc([N+](=O)[O-])cc1 (centres undefined) | > 10 |
| O=C(c1ccccc1)N(CC(O)Cn1c2ccccc2c2ccccc21)c1ccc(Cl)cc1 (centres undefined) | > 10 |
| O=C(c1ccccc1)N(CC(O)Cn1c2ccccc2c2ccccc21)c1ccc(F)cc1 (centres undefined) | > 10 |
| Cc1ccc(N(CC(O)Cn2c3ccccc3c3ccccc32)C(=O)c2ccccc2)cc1 (centres undefined) | > 10 |
| O=C(c1ccccc1)N(Cc1ccccc1)CC(O)Cn1c2ccccc2c2ccccc21 (centres undefined) | > 10 |
| O=C(c1ccc(Cl)cc1)N(Cc1ccccc1)CC(O)Cn1c2ccccc2c2ccccc21 (centres undefined) | > 10 |
| COc1ccc(C(=O)N(Cc2ccccc2)CC(O)Cn2c3ccccc3c3ccccc32)cc1 (centres undefined) | > 10 |
| O=C(c1ccc(Cl)c(Cl)c1)N(Cc1ccccc1)CC(O)Cn1c2ccccc2c2ccccc21 (centres undefined) | > 10 |
| O=C(c1ccccc1)N(Cc1ccc(Cl)cc1)CC(O)Cn1c2ccccc2c2ccccc21 (centres undefined) | > 10 |
| Cc1ccc(CN(CC(O)Cn2c3ccccc3c3ccccc32)C(=O)c2ccccc2)cc1 (centres undefined) | > 10 |
| COc1ccc(CN(CC(O)Cn2c3ccccc3c3ccccc32)C(=O)c2ccccc2)cc1 (centres undefined) | > 10 |
| O=C(c1ccccc1)N(CCc1ccccc1)CC(O)Cn1c2ccccc2c2ccccc21 (centres undefined) | 4.8 |
| O=C(c1ccccc1)N(CC(O)Cn1c2ccccc2c2ccccc21)C1CCCCC1 (centres undefined) | > 10 |
| OC(CNc1cccc2ccccc12)Cn1c2ccccc2c2ccccc21 (centres undefined) | 2.99 |
